Activity calls are given as the source filed them. The calls are words filed in the database; no cut-off is given here.
Experiments:
Escherichia coli [1] = assay: Binding affinity to Escherichia coli DHDPS assessed as formation of purple chromophore after 10 to 40 mins by o-aminobenzaldehyde assay
Escherichia coli [2] = assay: Binding affinity to Escherichia coli DHDPS assessed as formation of purple chromophore after 70 mins by o-aminobenzaldehyde assay using UV-vis spectrophotometric analysis using UV-vis spectrophotometric analysis
Escherichia coli [3] = assay: Binding affinity to Escherichia coli DHDPS assessed as formation of purple chromophore after 30 to 60 mins by o-aminobenzaldehyde assay using UV-vis spectrophotometric analysis using LC-MS analysis

Activity (Escherichia coli [1]): Active | Activity (Escherichia coli [2]): Active | Activity (Escherichia coli [3]): Active
Compound: O=C(O)C1=N[C@H](C(=O)O)C[C@H](O)C1
